From patent US11186606B2, “Compositions and methods of modulating the immune response by activating alpha protein kinase 1” (Shanghai Yao Yuan Biotechnology Co., Ltd., priority 2017, dated 2021)

Tests used:
TLR-9 = target: T1, TLR-9 (Homo sapiens, UniProt Q9NR96); conditions: US 20100016250 by Nagata et al.; cited from earlier work
T1 sequence (Q9NR96 26-1032): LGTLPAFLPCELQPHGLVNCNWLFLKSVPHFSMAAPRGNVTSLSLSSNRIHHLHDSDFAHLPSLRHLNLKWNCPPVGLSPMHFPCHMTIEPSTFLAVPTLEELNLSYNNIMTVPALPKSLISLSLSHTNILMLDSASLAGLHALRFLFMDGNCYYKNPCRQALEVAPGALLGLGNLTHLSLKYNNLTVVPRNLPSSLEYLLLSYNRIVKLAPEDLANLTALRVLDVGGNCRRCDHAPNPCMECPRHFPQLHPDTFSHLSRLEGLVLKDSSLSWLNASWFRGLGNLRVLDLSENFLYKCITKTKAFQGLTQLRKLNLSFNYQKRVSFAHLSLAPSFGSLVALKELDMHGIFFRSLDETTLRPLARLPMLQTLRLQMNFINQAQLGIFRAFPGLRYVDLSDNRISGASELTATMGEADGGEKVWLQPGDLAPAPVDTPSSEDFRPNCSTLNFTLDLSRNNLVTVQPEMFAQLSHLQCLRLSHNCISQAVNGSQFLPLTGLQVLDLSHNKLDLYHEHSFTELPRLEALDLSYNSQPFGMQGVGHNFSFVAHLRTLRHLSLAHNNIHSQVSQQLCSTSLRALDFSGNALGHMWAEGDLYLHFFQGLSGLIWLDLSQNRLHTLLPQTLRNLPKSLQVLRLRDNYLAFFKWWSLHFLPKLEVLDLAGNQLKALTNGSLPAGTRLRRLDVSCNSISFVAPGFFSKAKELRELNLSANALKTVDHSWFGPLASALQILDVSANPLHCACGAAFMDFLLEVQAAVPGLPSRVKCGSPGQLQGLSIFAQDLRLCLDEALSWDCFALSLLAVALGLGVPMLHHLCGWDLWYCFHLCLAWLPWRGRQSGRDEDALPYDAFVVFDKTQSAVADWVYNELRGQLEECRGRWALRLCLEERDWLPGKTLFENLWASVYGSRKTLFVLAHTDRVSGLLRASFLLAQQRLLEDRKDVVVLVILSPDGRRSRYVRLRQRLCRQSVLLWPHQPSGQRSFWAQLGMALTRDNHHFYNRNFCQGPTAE

ALPK1 [1] = target: T2, ALPK1 (Homo sapiens, UniProt Q96QP1); experiment: In vitro kinase assay of ALPK1-dependent TIFA phosphorylation; assay type: biochemical
T2 sequence (Q96QP1 whole entry): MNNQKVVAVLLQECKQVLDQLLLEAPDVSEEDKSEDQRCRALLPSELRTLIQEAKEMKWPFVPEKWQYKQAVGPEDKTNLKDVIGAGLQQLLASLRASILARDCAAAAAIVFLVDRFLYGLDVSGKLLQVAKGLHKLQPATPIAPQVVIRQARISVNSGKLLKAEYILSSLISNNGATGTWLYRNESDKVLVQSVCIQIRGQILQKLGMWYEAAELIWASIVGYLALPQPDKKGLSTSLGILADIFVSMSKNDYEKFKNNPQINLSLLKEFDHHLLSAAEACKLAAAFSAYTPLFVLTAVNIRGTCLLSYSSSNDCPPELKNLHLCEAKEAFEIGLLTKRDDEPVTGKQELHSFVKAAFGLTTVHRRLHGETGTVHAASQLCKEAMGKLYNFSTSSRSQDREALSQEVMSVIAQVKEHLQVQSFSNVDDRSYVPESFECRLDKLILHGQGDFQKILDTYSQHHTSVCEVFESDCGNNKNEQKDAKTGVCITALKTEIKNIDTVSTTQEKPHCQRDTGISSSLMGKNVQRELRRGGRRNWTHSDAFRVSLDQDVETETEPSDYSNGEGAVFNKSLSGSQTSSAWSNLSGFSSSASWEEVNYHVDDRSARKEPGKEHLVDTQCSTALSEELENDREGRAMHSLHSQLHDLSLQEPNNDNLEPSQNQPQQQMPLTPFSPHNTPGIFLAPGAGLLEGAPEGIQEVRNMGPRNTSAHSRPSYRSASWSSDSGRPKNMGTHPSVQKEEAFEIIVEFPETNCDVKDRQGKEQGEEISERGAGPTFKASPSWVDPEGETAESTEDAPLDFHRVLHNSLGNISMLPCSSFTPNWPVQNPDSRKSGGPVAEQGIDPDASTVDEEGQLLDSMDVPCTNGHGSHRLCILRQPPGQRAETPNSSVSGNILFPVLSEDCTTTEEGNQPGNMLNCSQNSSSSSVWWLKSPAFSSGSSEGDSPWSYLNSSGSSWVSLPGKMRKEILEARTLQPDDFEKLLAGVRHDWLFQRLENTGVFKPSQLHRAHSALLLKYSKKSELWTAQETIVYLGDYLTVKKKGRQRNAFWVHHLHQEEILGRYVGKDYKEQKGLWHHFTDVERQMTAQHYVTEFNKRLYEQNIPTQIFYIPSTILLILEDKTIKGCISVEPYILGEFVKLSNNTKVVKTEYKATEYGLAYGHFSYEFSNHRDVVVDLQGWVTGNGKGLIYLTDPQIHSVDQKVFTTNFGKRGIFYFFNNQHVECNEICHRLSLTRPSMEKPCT
Method: We performed an in vitro kinase assay with H1b-ADP and H1b-ADP-6L along with ALPK1 protein (2 nM), and TIFA protein (1.6 uM) in kinase buffer containing 50 uM ATP. TIFA phosphorylation was analyzed by denaturing gel electrophoresis followed by western blotting using an anti-phosphothreonine antibody. H1b-ADP or H1b-ADP-6L was added at 2 nM, 0.4 nM, 80 pM, 16 pM, and 3 pM.
To test this, we performed an in vitro kinase reaction for ALPK1-dependent TIFA phosphorylation in the presence of either HBP or HIdA purified from E. coli containing inactivated HIdE, or in the presence of HBP and HIdA purified from the same HIdE wild-type E. coli used in the previous experiments. Phosphorylated TIFA (three concentrations, 1%, 0.2% and […]) was detected as described above by denaturing gel electrophoresis followed by Western analysis.

[2] = tested on: phosphatase activity in the serum; experiment: Incubation of H1b-ADP with FBS, product analysed by LC-MS; assay type: in vitro ADME, bovine; conditions: incubated with FBS, LC-MS; AMP formed
Excerpt: FBS contains 110-352 U/ml alkaline phosphatase.

[3] = tested on: mouse bone marrow-derived macrophages; experiment: Cxcl1 mRNA expression in mouse bone marrow-derived macrophages (qPCR); assay type: cell-based; conditions: 0.4 nM or 2 nM, 2.5 hours
Method: In these experiments, mouse bone marrow-derived macrophages were treated with 0.4 nM or 2 nM H1b-ADP for 2.5 hours and harvested for mRNA expression analysis of Cxcl1 by qPCR. […] Accordingly, very low doses of H1b-ADP, or an agonist thereof, may be used to enhance or potentiate an immune response in a local tissue.

ALPK1 [4] = target: T2, ALPK1; experiment: Cell-free kinase assay of ALPK1 autophosphorylation (Western, anti-phospho-threonine); assay type: biochemical; conditions: ALPK1 2 nM, ATP; H1b-ADP 10, 1, 0.2 nM; HBP and HMP-1bP 1, 10, 100 nM
Method: ALPK1 activation results in its autophosphorylation. Accordingly, we next asked whether the binding of H1b-ADP to ALPK1 was sufficient to induce ALPK1 autophosphorylation. Phosphorylation assays were performed according to standard protocols. Briefly, ALPK1 was incubated (2 nM, 25° C., 1 h) in assay buffer (20 al, 25 mM HEPES pH 7.5, 50 mM KCl, 0.1 mM EDTA, 0.1 mM EGTA, 2 mM DTT, 1.5 mM CaCl2, 10 mM MgCl2) with ATP and chemically synthesized HBP, HMP-1bP, or H1b-ADP followed by denaturing gel electrophoresis and Western analysis with an anti-phospho-threonine antibody (CST) to detect autophosphorylation of ALPK1. […] The range of concentrations of HBP and HMP-1bP used in this assay (1 nM, 10 nM, 100 nM) was 10-fold higher than that used for H1b-ADP.

ALPK1 [5] = target: T2, ALPK1; experiment: Cell-free kinase assay of ALPK1-dependent phosphorylation of IκB; assay type: biochemical; conditions: 2 nM ALPK1, with or without ATP, 1 hour
Method: We next tested whether H1b-ADP-induced autophosphorylation of ALPK1 was effective to activate NFκB using phosphorylation of IκB as a marker for this activity. Phosphorylation assays were performed according to standard protocols and phosphorylated protein was detected by gel electrophoresis and Western blotting using an antibody that detects phosphorylated IκB. Briefly, assays were performed in a 20 μl volume at 25° C. in assay buffer (25 mM HEPES pH 7.5, 50 mM KCl, 0.1 mM EDTA, 0.1 mM EGTA, 2 mM DTT, 1.5 mM CaCl2, 10 mM MgCl2) containing 2 nM ALPK1 and H1b-ADP […] with or without ATP, or either ALPK1 alone or H1b-ADP alone, both in the presence of ATP. After 1 hour of incubation, the reaction was loaded to denaturing gel for protein electrophoresis and Western was performed to detect phosphorylation of IkB using p-IkB antibody (Abcam).

In the case of `Nc1ncnc2c1ncn2[C@@H]1O[C@H](COP(=O)(O)OP(=O)(O)O[C@@H]2O[C@H]([C@H](O)CO)[C@@H](O)[C@H](O)[C@@H]2O)[C@@H](O)[C@H]1O` [Compound H1b-ADP, D-glycero-D-manno-heptose-1β-ADP], the TLR-9 agonist activity (TLR-9) is listed as “TLR-9 agonist”, the “TIFA phosphorylation (ALPK1-dependent signaling)” value (ALPK1 [1]; ALPK1 2 nM, TIFA 1.6 uM, 50 uM ATP, 2 nM to 3 pM) is listed as “activated ALPK1-dependent signaling” and the “phosphorylation of the ALPK1 substrate TIFA” value (ALPK1 [1]; FIG. 7, chemically-synthesized compounds) is listed as “TIFA is phosphorylated only in the presence of H1b-ADP”. The “H1b-ADP amount with increasing incubation time” value [2] was “declined”, the “Cxcl1 mRNA expression, fold change over non-treated control” value [3] was “dose-dependent response” and the “autophosphorylation of ALPK1” value (ALPK1 [4]) was “detected only in the presence of H1b-ADP”. The IkB phosphorylation (ALPK1 [5]) was “detected only in the presence of both ALPK1 and H1b-ADP in the presence of ATP”.
